Columns and labels:
[1] = PPI/NSAID drug substance compatibility (storage stability of mixtures); assay type: physicochemical
Procedure: Various NSAIDs were combined with lansoprazole with and without a buffer to determine the compatibility of the components. The various mixtures were placed at room temperature and 40° C. with 75% relative humidity. The samples were tested initially and after two weeks at the storage conditions above. The results are reported in Table 1 below as a percent of the theoretical amount of a given component.

[2] = Substance compatibility in granulations: potency by HPLC, initially and after storage; assay type: physicochemical; details: for Potency NSAID, 2 Weeks Extreme Conditions: 2 weeks at 40° C. with 75% to 85% relative humidity; for Potency NSAID, 4 Weeks Extreme Conditions: 4 weeks at 40° C. with 75% to 85% relative humidity; for Potency NSAID, 19 Days RT: 19 days at room temperature; for Potency NSAID, 33 Days RT: 33 days at room temperature
Procedure: In this example, granulations of a PPI and various NSAIDs were prepared to determine the compatibility of these substances with each other in a granulated form.
The potency (mg/g) of each drug substance in each granulation was determined by HPLC.
Granulations A, C, and D, as well as naproxen and piroxicam drug substances were weighed and separately placed in scintillation vials and stored at room temperature (RT) and at 40° C. with 75% to 85% relative humidity (“Extreme Conditions”). Granulations A, C, and D, as well as the naproxen and piroxicam, were tested for potency of the lansoprazole and NSAID after 19 and 33 days at the room temperature conditions and after two and four weeks under the Extreme Conditions.

Compound | % of Theory, lansoprazole, Initial ([1]; initial, percent of theoretical amount of lansoprazole) | % of Theory, lansoprazole, 40° C. 75% humidity ([1]; two weeks at 40° C. with 75% relative humidity) | % of Theory, lansoprazole, Room Temp. ([1]; two weeks at room temperature) | Potency NSAID, 2 Weeks Extreme Conditions [2] | Potency NSAID, 4 Weeks Extreme Conditions [2] | Potency NSAID, 19 Days RT [2] | Potency NSAID, 33 Days RT [2]
Cc1c(OCC(F)(F)F)ccnc1C[S+]([O-])c1nc2ccccc2[nH]1 (centres unmarked) [Lansoprazole, lansoprazole] | 100.8/NA % | 99.1/NA % | 99.1/NA % |  |  |  | 
COc1ccc2cc([C@H](C)C(=O)O)ccc2c1 [Naproxen, naproxen] |  |  |  | NA/996.7 mg/g | NA/1000.9 mg/g | NA/997.2 mg/g | NA/998.2 mg/g
CN1C(C(=O)Nc2ccccn2)=C(O)c2ccccc2S1(=O)=O [Piroxicam, piroxicam] |  |  |  | NA/942.2 mg/g | NA/1005.5 mg/g | NA/1027.1 mg/g | NA/998.5 mg/g

— patent US20040121004A1, “Dosage forms containing a PPI, NSAID, and buffer” (priority 2002, published 2004)
